Source: US20150315179A1, “COMPOUNDS AND METHODS OF TREATING NEUROLOGICAL DISORDERS” (Torrey Pines Institute For Molecular Studies, priority 2014, published 2015)

Columns and labels:
[1] = test system: 7WD10 (CHO) cells stably expressing APP751; test: SAHA treatment, APP fragments in 7WD10 (CHO) cells; type: cell-based; conditions: SAHA application
Description: (§1) Western blot sAPPα release assay. 7WD10 cells were grown in 6-well plates and treated with test compounds and SAHA (vorinostat) at several concentrations in duplicate wells. After 24 h of drug exposure, the conditioned media (CM) was collected, centrifuged to remove cell debris and subjected to SDS-PAGE electrophoresis. sAPPα (6E10, mouse IgG from IBL America ltd) was detected using indicated antibody. To detect APP-FL holoprotein and C-terminal fragments (CTFs, CT15 antibody), the cells were lysed using lysis buffer (1% NP40) with complete protease inhibitor mix (Sigma) supplemented with sodium vanadate and microcystine. Samples were subjected to SDS-PAGE, transferred and immunoblotted with indicated antibodies and detected by enhanced chemiluminescence method. Quantification of Western blot signals was done using ImageJ software.
(§2) We utilized a commercially available AlphaLISA detection kit to develop an HTS assay for identification of compounds that increase sAPPα production in CHO cells stably expressing APP751 (7WD10 cells) (FIG. 2.1B). There are several cell lines that have been used extensively in Alzheimer's disease research. For example, NT2 cells are highly used in AD basic and drug discovery research because they are derived from a human embryonal carcinoma cell line and they can be differentiated into post-mitotic neuron-like cells that develop functional dendrites and axons resembling primary neurons of the human brain [39]. NT2 cells also synthesize amyloid precursor protein important in Alzheimer's disease. However, the rate of growth of NT2 cells is much slower than rate of growth of 7WD10s cells, which makes them less HTS-amenable. We have analyzed both 7WD10 and NT2 cells for expression of the hallmark proteins of Alzheimer's disease: soluble APPα, soluble APPβ, Aβ, and membrane-bound full length APP (APP-FL). […] Since it was shown that broad HDAC inhibition results in a decrease of Aβ and an increase of soluble APPα [41] we tested both cell lines for the effect of application of SAHA (suberoylanilide hydroxamic acid or vorinostat), a pan-HDAC inhibitor [42].

[2] = test system: NT2 cells stably expressing APP751; test: SAHA treatment, APP fragments in NT2 cells; type: cell-based, human; conditions: SAHA application
From the text: as §2

[3] = test system: sAPPα release from 7WD10 cells; test: AlphaLISA sAPPα release assay (pilot screen); type: cell-based
Description: Pilot screen of AlphaLISA sAPPα release assay. 8 μL of assay media (DMEM supplemented with 10% FBS and 1× Penicillin/Streptomycin) containing 20,000 cells were added to all wells of the assay plate, except column 1 where only media was added. Plates were incubated for 4 h at 37° C., 5% CO2, 95% RH after which 80 nL of test compounds in DMSO or DMSO alone were added to respective wells using a pin tool device (VP Scientific, San Diego). After 24 h of incubation at 37° C., 5% CO2, 95% RH, sAPPα AlphaLISA beads were added in 10 μL of buffer, equilibrated for 1 h, and AlphaLISA signal was measured using a Biotek H4 Synergy microplate reader (Biotek Inc). Three parameters were calculated on a per-plate basis: (a) the signal-to-background ratio (S/B); (b) the coefficient for variation [CV; CV=(standard deviation/mean)×100)] for all compound test wells; and (c) the Z′-factor [31]. Nominally active compounds from the pilot screen were determined using mean plus 3 times the standard deviation (Mean+3SD) was used as the cut-off.

[4] = test system: sAPPα in supernatants of 7WD10 cells; test: Western blot sAPPα release assay, 7WD10 cells; type: cell-based; conditions: as low as 10 nM, 7WD10 supernatants
Description: (2). To ascertain that hits identified as a result of AlphaLISA assay are not due to artifacts of the detection system, the sAPPα levels were measured by Western blots as a secondary assay downstream of primary HTS to confirm hits or discard artifacts of the AlphaLISA assay. The assay was performed using a range of concentrations of hit compounds (10-5,000 nM). A hit compound named thiazole piperazine #244 (THPI-244) and THPI-326 induced dose-dependent increase of sAPPα in supernatants of 7WD10 cells (FIG. 1.3). […] Since compound THPI-244 increased sAPPα levels more than THPI-326, we focused on THPI-244 for further validation.
as §1

sAPPα = sAPPα increasing activity of THPI-244 analogs; type: cell-based
From the text: (§3) The following table illustrates Chemical structures and properties of THPI-244 analogs selected out of 37 analogs, and each have significant sAPPα increasing activity. Toxicity is the minimum dose for toxicity.

TrkA = TrkA increase by THPI-244 analogs; type: cell-based
From the text: as §3

BBB of THPI-244 analogs = test: BBB of THPI-244 analogs
From the text: as §3

7WD10 cells = test: CellTiter-Glo cell viability assay; type: cell-based; conditions: for viability: 100 μM
Description: Cell viability assay. 7WD10 cells were plated in 384-well plates in 8 μL of media. Plates were incubated for 4 and 24 h at 37° C., 5% CO2 and 95% RH. After incubation, 8 μL of CellTiter-Glo® (Promega cat#: G7570) were added to each well, and incubated for 15 min at room temperature. Luminescence was recorded using a Biotek Synergy H4 microplate reader. Viability is expressed as a % relative to wells containing media only (0%) and wells containing cells (100%).
In the absence of known pharmacological agents capable of inducing an increase of sAPPα release, we tested a small molecule (FIG. 2.4A insert, compound 1 in [2]) shown to decrease Aβ release. It was shown that decrease of Aβ release could be accompanied by the increase of soluble APPα, which has a neuroprotective effect. Compound 1 was tested using 20,000 cells/well in the range of 1.2-100 μM using 3-fold serial dilutions and 24 h incubation as an assay endpoint. Increase of sAPPα release was observed only in wells where 100 μM of compound 1 was added either with or without FBS (FIG. 2.4A). Viability of cells was also tested in the presence of 1.2-100 μM of compound 1 to ascertain that the increase of sAPPα release is not due to excessive cell death. Consistent with the above described results, cells were less viable in the absence of FBS. In the presence of 1.2-33 μM of compound 1, cells were approximately 10% less viable than untreated control either with or without FBS (FIG. 2.4B).

[5] = test system: sAPPα in conditioned medium of 7WD10 cells; test: sAPPα release ELISA, 7WD10 cells; type: cell-based; conditions: 24 h
Description: Starting from p-methylbenzhydrylamine hydrochloride (MBHA.HCl) resin; we developed different approaches toward the diversity oriented solid-phase parallel synthesis of different aminothiazole compounds 1-6 (Scheme 1) (Micheals, H A et al., 2014, ACS Comb. Sci. 16, 1-4; Nefzi, A et al., 2010, J. Org. Chem. 75, 7939-7941). 575 thiazole compounds were synthesized and were tested for sAPPα increasing activity using CHO cells stably expressing APP751 wt. For initial screenings we used a cell-based human sAPPα ELISA kit (cat#27734, IBL Co., ltd, Japan) following instructions from the manufacturer. The method involves sandwich ELISA and use of two specific antibodies and tetra methyl benzidine as a coloring agent. […]
sAPPα and Aβ40 release ELISA assay. […] The principle of the method is based on the use of tetra methyl benzidine (TMB) as a chromogen and the strength of the generated color is proportional to the quantities of human sAPPα. […] Plates were incubated with chromogen solution for 30 minutes, and read at 450 nm after adding stop solution. Levels of Aβ40 in the CM treated with different concentrations of compound 1 as detailed above were measured by sandwich ELISA exactly as described previously. Aβ40 was captured with Ab9 antibody (epitope, 1-16 of Aβ40) and detected with horseradish peroxidase-conjugated Ab13.1.1 antibody (epitope, 35-40 of Aβ40).

[6] = test system: Aβ40 in conditioned medium of 7WD10 cells; test: Aβ40 release ELISA, 7WD10 cells; type: cell-based
From the text: sAPPα and Aβ40 release ELISA assay. 7WD10 cells stably expressing APP751 were used for the detection of sAPPα in the conditioned medium (CM). For the detection of sAPPα, human sAPPα assay kit from IBL (Immuno-Biological Laboratories Co., Ltd, cat #27734) was used. The kit is a solid phase sandwich ELISA using two different antibodies. The principle of the method is based on the use of tetra methyl benzidine (TMB) as a chromogen and the strength of the generated color is proportional to the quantities of human sAPPα. Briefly, cells were grown in 6-well plates and treated with compound 1 at 0, 50, 75, 100, 125 and 150 μM final concentrations. After 24 hours of compound exposure, the CM was collected, centrifuged to remove cell debris and used in the assay. 100 μL of EIA buffer was used as blank. The 100 μL of test samples were put in to each well and incubated the precoated plate overnight at […] covered with plate lid. After overnight incubation, wells were vigorously washed with wash buffer several times. Then 100 μL of labeled antibody was added, incubated at 40 C for 30 minutes and washed again several times. Plates were incubated with chromogen solution for 30 minutes, and read at 450 nm after adding stop solution. Levels of Aβ40 in the CM treated with different concentrations of compound 1 as detailed above were measured by sandwich ELISA exactly as described previously. Aβ40 was captured with Ab9 antibody (epitope, 1-16 of Aβ40) and detected with horseradish peroxidase-conjugated Ab13.1.1 antibody (epitope, 35-40 of Aβ40).

## O=C(CCCCCCC(=O)Nc1ccccc1)NO [SAHA, suberoylanilide hydroxamic acid]
[1]
  Aβ: decrease
  levels of APP-FL: not affected
  sAPPβ: decrease
[2]
  Aβ: decrease
  levels of APP-FL: not affected
  sAPPβ: decrease

## CCC(C)C(=O)N1CCN(Cc2csc(NC[C@H](Cc3ccc(O)cc3)NC(=O)Cc3ccccc3)n2)CC1 (stereo partly drawn) [THPI-326]
[3]; 5 μM, 7WD10 cells, 24 h
  increase of Alpha signal (sAPPα release): ~2 fold
[4]
  increase of sAPPα over untreated control cells: 2 fold

## Cc1cnc(C(=O)N[C@H](CNc2nc(CN3CCNCC3)cs2)c2ccccc2)cn1 [TPI-2336-55]
sAPPα
  % sAPPα ↑: 217%
TrkA
  % TrkA ↑: 69%
BBB of THPI-244 analogs
  % BBB: 1.0%

## c1ccc(CCNc2nc(CN3CCOCC3)cs2)cc1 [TPI-2336-99]
sAPPα
  % sAPPα ↑: 160%
TrkA
  % TrkA ↑: 51%
BBB of THPI-244 analogs
  % BBB: 5.6%

## c1ccc(CCNc2nc(CN3CCCCC3)cs2)cc1 [TPI-2336-100]
sAPPα
  % sAPPα ↑: 166%
TrkA
  % TrkA ↑: 54%
BBB of THPI-244 analogs
  % BBB: 5.9%

## O=C(NCCSCc1cccc(Cl)c1)c1c(Cl)cccc1Cl [compound 1, 2,6-dichloro-N-{2-[(3-chlorobenzyl)thio]ethyl}benzamide]
[3]; 100 μM compound 1, assay development and pilot screen
  increase of AlphaLISA signal: 2 fold
[3]; tested 1.2-100 μM, 20,000 cells/well, 24 h, with or without FBS
  concentration at which increase of sAPPα release was observed: 100 µM
7WD10 cells; with FBS
  viability: ~70%
7WD10 cells; without FBS
  viability: ~40%
7WD10 cells; 1.2-33 μM, with or without FBS
  loss of viability versus untreated control: approximately 10%
[5]; 100 μM
  increase of sAPPα over untreated control cells: 2 fold
[5]; 150 μM
  maximal effect, increase of sAPPα: 3 fold
[6]; 100 μM
  decrease of Aβ40 supernatant levels: 24%
[6]; 125 μM
  decrease of Aβ40 supernatant levels: 43%
[6]; 150 μM
  decrease of Aβ40 supernatant levels: 49%
